Reference: ChEMBL document CHEMBL1201862, “PubChem BioAssay data set” (2004)
Activity calls are given as the source filed them.

Legend:
Type in all cases: functional
[1] = molecular target: T1, Serine/threonine-protein kinase TBK1 (Homo sapiens, UniProt Q9UHD2); experiment: Navigating the Kinome. Panel member name: TBK1
T1 sequence (Q9UHD2 whole entry): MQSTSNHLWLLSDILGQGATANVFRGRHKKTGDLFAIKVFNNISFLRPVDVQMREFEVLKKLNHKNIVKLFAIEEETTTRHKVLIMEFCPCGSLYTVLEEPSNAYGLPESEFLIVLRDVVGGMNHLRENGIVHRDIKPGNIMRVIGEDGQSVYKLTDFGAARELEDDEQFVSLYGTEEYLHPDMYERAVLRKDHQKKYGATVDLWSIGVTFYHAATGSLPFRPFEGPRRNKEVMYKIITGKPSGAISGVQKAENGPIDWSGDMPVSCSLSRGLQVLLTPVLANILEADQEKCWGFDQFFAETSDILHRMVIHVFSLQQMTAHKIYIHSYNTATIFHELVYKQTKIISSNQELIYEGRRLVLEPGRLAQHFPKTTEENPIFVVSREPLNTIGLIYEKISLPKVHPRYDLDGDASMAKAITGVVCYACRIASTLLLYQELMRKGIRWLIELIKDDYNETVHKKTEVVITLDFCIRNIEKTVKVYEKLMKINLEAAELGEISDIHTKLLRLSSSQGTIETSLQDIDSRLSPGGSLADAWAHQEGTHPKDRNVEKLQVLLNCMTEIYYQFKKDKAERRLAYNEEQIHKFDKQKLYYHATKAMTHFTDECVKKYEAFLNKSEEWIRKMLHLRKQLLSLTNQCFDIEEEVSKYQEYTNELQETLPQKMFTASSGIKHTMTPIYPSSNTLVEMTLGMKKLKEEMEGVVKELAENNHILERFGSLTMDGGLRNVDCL

[2] = molecular target: Macrophage-stimulating protein receptor (Homo sapiens, UniProt Q04912); experiment: Navigating the Kinome. Panel member name: MST1R
[3] = molecular target: Vascular endothelial growth factor receptor 1 (Homo sapiens, UniProt P17948);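 note: measured within a kinome-wide profiling panel, FLT1 as the panel member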
[4] = molecular target: 5'-AMP-activated protein kinase catalytic subunit alpha-1 (Homo sapiens, UniProt Q13131)
[5] = molecular target: T2, Mitogen-activated protein kinase kinase kinase kinase 2 (Homo sapiens, UniProt Q12851);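 note: measured as one member of a kinome-wide kinase panel, with MAP4K2 as the panel entry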
T2 sequence (Q12851 whole entry): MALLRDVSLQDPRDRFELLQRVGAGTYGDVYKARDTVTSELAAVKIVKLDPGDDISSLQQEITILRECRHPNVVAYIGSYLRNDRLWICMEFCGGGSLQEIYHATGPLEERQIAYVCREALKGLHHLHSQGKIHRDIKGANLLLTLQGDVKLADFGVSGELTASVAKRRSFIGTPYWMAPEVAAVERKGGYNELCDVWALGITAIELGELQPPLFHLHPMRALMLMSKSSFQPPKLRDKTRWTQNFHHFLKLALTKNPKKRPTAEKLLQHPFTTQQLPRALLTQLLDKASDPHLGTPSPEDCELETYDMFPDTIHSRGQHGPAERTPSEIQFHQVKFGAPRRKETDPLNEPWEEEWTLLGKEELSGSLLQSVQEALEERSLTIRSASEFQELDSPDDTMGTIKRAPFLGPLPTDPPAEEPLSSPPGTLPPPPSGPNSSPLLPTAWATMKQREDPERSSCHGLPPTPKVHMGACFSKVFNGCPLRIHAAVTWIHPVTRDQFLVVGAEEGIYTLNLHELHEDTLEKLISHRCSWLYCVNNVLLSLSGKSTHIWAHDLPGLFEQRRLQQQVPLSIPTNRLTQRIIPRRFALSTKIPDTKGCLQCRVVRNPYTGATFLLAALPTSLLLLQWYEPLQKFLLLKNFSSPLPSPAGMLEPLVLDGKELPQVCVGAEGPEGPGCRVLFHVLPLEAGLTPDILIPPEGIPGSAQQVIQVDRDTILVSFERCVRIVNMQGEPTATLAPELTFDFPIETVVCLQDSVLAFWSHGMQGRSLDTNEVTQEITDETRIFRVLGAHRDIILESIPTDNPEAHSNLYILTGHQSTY

[6] = molecular target: Dual specificity protein kinase CLK4 (Homo sapiens, UniProt Q9HAZ1)
[7] = molecular target: BDNF/NT-3 growth factors receptor (Homo sapiens, UniProt Q16620);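 note: NTRK2 measured as one member of a broad kinome-wide kinase profiling panel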
[8] = molecular target: Death-associated protein kinase 3 (Homo sapiens, UniProt O43293);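 note: measured as one member of a kinome-wide profiling panel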
[9] = molecular target: Hepatocyte growth factor receptor (Homo sapiens, UniProt P08581);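 note: kinase panel profiling across the kinome, with MET as the panel member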
[10] = molecular target: T3, Sentrin-specific protease 6 (Homo sapiens, UniProt Q9GZR1);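 note: Luminescence-based dose-response confirmatory assay of SENP6 inhibition, following up an ultra-high-throughput screen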
T3 sequence (Q9GZR1 whole entry): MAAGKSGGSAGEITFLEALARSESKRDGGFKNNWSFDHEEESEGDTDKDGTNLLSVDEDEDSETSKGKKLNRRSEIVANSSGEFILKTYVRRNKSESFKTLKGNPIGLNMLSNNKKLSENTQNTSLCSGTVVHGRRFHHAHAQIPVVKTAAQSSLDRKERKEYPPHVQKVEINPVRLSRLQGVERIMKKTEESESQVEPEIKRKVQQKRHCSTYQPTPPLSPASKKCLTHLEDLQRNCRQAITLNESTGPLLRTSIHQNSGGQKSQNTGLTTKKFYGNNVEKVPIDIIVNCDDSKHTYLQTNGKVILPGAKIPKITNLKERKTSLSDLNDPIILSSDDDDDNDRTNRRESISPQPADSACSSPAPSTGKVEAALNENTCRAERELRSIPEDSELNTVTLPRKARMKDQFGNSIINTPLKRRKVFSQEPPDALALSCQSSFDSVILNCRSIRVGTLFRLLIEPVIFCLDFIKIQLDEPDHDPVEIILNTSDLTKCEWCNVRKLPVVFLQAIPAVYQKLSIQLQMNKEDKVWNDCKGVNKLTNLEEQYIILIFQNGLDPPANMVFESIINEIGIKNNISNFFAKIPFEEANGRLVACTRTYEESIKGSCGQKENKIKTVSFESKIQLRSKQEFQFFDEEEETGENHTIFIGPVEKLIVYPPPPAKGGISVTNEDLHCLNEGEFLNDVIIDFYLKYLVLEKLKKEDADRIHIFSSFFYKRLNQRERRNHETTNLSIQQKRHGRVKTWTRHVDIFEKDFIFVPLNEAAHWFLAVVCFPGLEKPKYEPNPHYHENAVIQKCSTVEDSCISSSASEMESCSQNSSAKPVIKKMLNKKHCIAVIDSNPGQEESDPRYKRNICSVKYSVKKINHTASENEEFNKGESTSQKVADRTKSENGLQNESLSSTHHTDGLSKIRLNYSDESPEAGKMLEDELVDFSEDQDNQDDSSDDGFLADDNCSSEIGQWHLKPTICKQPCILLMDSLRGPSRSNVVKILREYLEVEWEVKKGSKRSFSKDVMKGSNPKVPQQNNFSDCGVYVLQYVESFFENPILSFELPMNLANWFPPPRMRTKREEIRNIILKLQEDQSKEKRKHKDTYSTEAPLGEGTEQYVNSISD

Chain of Macrophage-stimulating protein receptor (Q04912 25-304 limits assumed): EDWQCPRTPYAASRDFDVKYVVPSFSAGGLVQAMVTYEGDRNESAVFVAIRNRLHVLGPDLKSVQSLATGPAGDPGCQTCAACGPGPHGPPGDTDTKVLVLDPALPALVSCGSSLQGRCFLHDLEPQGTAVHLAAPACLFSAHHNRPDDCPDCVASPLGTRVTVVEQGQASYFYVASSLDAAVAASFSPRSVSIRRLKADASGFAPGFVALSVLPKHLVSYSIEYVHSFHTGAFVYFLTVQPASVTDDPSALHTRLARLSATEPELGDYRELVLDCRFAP
Chain of Macrophage-stimulating protein receptor (Q04912 310-1400 limits assumed): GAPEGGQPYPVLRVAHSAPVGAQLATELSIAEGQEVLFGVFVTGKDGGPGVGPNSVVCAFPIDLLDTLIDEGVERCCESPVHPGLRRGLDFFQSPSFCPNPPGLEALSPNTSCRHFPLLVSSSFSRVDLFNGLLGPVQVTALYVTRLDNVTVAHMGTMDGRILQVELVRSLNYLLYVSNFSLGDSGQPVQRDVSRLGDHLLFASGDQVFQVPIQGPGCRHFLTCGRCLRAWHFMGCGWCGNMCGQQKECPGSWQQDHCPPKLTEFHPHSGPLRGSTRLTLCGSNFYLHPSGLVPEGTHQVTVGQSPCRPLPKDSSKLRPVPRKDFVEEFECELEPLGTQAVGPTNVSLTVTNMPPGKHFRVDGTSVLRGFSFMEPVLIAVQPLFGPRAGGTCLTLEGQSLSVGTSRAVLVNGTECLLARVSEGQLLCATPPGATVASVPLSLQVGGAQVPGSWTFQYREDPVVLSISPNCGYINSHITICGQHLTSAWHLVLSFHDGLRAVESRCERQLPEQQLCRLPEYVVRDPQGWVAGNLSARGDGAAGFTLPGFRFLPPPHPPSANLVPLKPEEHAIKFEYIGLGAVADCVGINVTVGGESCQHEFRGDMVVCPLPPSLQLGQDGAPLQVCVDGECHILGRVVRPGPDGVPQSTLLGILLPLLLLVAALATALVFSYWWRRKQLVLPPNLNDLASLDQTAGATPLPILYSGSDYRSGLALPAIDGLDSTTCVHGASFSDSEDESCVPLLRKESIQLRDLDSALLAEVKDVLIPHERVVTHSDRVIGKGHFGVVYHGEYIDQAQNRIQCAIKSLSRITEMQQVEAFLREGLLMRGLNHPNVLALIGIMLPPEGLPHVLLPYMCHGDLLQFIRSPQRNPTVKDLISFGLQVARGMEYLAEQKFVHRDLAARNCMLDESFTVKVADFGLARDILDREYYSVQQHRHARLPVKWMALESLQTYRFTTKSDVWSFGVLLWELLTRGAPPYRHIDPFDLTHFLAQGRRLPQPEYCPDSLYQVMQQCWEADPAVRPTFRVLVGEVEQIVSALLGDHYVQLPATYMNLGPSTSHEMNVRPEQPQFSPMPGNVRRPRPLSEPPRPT
Chain of Death-associated protein kinase 3 (O43293 whole entry): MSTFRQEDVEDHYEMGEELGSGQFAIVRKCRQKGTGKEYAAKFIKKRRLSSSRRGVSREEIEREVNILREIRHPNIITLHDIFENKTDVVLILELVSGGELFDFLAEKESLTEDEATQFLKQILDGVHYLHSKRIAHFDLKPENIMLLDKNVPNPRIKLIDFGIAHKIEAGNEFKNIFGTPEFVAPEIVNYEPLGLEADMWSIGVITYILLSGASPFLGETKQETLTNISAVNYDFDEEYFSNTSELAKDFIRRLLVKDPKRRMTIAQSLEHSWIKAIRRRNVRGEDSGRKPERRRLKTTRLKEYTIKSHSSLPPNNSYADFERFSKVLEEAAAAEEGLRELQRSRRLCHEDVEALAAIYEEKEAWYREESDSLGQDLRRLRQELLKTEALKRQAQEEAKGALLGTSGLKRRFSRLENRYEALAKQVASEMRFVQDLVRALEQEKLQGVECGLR
Chain of Hepatocyte growth factor receptor (P08581 whole entry): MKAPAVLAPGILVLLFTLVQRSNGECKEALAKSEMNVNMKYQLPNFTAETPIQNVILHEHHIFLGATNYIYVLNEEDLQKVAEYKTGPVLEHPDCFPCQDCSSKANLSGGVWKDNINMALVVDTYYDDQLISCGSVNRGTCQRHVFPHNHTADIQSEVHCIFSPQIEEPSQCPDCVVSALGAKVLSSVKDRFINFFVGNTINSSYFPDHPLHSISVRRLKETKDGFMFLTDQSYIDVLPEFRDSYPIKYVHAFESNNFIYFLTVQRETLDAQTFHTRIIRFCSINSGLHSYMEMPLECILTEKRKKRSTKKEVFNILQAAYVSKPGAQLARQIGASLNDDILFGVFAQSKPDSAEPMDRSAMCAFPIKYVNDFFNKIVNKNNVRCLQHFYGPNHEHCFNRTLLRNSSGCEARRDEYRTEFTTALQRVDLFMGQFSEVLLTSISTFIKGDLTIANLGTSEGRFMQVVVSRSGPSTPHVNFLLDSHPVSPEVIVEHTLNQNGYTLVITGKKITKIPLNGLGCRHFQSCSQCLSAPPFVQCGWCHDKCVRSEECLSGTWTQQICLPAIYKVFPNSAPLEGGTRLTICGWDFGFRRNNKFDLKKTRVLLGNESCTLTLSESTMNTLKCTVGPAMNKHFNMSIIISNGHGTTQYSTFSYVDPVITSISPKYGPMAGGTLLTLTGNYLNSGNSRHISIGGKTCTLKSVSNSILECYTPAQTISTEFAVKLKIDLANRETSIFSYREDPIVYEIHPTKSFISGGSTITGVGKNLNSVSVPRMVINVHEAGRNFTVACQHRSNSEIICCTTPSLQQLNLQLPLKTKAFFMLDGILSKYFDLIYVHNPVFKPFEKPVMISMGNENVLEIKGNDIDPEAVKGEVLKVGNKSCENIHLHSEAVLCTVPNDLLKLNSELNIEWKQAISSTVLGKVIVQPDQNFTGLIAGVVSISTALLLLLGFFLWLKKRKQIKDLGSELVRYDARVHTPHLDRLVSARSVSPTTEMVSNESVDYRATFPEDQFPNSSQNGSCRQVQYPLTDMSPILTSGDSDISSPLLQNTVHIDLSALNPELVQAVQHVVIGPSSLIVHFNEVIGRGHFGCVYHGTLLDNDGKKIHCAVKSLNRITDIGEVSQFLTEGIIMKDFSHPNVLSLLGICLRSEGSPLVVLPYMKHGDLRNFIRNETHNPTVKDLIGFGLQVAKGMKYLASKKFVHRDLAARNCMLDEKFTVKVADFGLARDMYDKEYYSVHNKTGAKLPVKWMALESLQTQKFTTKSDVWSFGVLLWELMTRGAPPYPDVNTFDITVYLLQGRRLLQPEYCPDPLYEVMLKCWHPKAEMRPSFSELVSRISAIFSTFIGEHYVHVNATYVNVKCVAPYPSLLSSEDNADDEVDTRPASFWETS
Chain of BDNF/NT-3 growth factors receptor (Q16620 whole entry): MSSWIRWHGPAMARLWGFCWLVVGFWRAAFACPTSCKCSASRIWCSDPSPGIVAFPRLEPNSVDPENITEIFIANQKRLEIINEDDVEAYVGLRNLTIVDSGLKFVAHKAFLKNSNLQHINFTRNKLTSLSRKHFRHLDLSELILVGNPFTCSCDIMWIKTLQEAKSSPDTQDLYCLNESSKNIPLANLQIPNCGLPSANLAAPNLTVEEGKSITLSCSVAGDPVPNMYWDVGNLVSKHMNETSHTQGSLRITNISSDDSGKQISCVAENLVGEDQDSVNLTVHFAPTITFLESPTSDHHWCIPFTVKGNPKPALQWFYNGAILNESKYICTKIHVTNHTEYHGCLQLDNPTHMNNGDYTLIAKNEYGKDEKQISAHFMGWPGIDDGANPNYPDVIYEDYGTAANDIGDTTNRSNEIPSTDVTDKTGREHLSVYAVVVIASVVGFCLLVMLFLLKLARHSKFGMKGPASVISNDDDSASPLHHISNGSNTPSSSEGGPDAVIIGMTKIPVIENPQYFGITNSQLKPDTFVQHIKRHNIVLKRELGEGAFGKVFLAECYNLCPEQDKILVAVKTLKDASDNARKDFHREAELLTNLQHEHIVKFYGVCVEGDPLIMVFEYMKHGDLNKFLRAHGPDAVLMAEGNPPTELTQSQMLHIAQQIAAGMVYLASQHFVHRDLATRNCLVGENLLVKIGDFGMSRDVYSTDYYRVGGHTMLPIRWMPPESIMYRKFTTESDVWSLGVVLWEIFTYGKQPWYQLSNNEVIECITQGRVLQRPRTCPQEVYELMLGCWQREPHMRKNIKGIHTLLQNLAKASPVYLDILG
Chain of 5'-AMP-activated protein kinase catalytic subunit alpha-1 (Q13131 whole entry): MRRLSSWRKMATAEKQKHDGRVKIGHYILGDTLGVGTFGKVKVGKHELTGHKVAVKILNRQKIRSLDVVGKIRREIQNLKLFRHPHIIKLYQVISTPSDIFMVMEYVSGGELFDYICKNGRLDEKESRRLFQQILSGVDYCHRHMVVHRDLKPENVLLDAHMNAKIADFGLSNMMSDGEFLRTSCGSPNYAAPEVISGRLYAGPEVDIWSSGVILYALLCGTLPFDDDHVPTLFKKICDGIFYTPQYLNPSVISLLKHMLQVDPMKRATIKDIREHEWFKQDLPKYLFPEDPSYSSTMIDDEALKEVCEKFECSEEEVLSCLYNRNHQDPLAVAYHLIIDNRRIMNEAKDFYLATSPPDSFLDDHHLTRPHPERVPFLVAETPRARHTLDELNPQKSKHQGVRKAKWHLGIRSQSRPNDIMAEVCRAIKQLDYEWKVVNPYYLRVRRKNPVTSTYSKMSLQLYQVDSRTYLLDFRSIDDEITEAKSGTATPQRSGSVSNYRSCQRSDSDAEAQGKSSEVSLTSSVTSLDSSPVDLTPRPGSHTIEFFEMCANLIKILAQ
Chain of Dual specificity protein kinase CLK4 (Q9HAZ1 whole entry): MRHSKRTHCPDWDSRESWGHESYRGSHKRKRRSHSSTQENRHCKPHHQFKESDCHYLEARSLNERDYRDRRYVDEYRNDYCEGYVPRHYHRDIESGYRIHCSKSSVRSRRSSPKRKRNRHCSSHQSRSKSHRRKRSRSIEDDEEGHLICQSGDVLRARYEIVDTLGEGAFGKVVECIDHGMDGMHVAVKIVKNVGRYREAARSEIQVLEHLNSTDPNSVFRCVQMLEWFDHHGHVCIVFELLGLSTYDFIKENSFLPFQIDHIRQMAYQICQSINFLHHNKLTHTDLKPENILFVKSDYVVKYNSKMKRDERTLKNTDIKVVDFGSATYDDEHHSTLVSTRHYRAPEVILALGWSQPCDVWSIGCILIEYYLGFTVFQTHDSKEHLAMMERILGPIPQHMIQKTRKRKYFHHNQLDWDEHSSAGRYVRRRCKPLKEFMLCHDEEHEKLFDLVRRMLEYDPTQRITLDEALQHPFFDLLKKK

O=C1Nc2cc(-c3ccc(O)cc3)ccc2C1=Cc1ccc[nH]1
active: Ki [1] 1260 nM | Ki [2] 63.1 nM | Ki [3] 20 nM | Ki [4] 158 nM | Ki [5] 31.6 nM | Ki [6] 1260 nM | Ki [7] 631 nM | Ki [8] 7.94 nM | Ki [9] 2510 nM

Oc1nc(Nc2ccc(F)cc2)cc2ccccc12
active: IC50 [10] 2990 nM

NC(COc1cncc(-c2ccc3c(c2)C(=Cc2ccc[nH]2)C(=O)N3)c1)Cc1ccccc1 (stereo not given)
active: Ki [1] 7.94 nM | Ki [2] 1.58 nM | Ki [3] 0.631 nM | Ki [4] 3.16 nM | Ki [5] 15.8 nM | Ki [6] 0.316 nM | Ki [7] 5.01 nM | Ki [8] 5.01 nM | Ki [9] 316 nM

O=C1Cc2cc(-c3ccccc3)cnc2N1
active: Ki [1] 79400 nM | Ki [2] 79400 nM | Ki [3] 79400 nM | Ki [4] 50100 nM | Ki [5] 31600 nM | Ki [6] 6310 nM | Ki [7] 100000 nM | Ki [8] 39800 nM | Ki [9] 25100 nM

O=C(NC1=C(Nc2ccc(F)cc2)C(=O)c2ccccc2C1=O)c1ccc(Cl)cc1
active: IC50 [10] 8560 nM

CN(C)c1cc(N/N=C\c2ccccc2)nc(N(C)C)n1
active: IC50 [10] 6000 nM
